Test results published in patent US12016834B2, “Small molecule inhibitors of SLC25A1” (GEORGETOWN UNIVERSITY, priority 2017, dated 2024).
pKd: −log10 of the molar value.

Legend:
MP2 cells [1] = test: Self-renewal and sphere forming in methylcellulose; format: cell-based, human; conditions: semi-solid media
Experimental: (§1) Self-renewal assays. Tumor cells cultured as spheroids were dissociated and diluted in 2× sphere media containing 1% methyl cellulose, which was previously dissolved in cold DMEM/F12 media. Either 200, 500, or 1000 cells were then plated in each 96 well and were incubated in the presence or absence of drugs, as indicated. The spheres were allowed to form for a period of a week to ten days, at which point they were counted. Six biological replicates were used for quantification of the results.
(§2) Primary lung cancer cultures and GMSC. Surgical samples were minced and digested with dispase (50 U/ml) in DMEM media containing 5% serum for 1 hour. Pleural effusions were centrifuged, washed once in PBS, and then plated. All primary cultures were initially grown on 6-well plates pre-coated with 2% Geltrex (Life Technologies; Carlsbad, CA) and 1% Maxgel (Sigma Aldrich). Maxgel is a humanized matrix, native and non-denatured. The inclusion of Maxgel in the system enhanced the initial attachment of primary tumor cells, partially because Maxgel provides a more natural ECM conformational substrate. The day after plating, the media containing unattached cells was typically transferred to a fresh plate, in most of cases generating new attached cultures. […]

MP1 cells [2] = test: Self-renewal and sphere forming in methylcellulose; format: cell-based, human; conditions: semi-solid media
Experimental: as §1, §2

SLC25A1 = SLC25A1 (Homo sapiens, UniProt P53007); test: Surface plasmon resonance (SPR) binding to recombinant purified SLC25A1; conditions: steady state, 1:1 binding model; human protein
Chain of SLC25A1 (P53007 14-311): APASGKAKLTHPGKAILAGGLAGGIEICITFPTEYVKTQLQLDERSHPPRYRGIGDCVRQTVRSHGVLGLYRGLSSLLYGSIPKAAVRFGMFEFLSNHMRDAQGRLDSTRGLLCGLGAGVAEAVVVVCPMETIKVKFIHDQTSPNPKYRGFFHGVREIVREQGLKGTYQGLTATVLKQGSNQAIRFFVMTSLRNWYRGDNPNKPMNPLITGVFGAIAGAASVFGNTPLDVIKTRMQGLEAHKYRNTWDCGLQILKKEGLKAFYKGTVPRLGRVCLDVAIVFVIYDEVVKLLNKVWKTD
Experimental: Surface Plasmon Resonance (SPR). SPR experiments were performed on a Biacore 4000 instrument at room temperature. The NTA sensorchip surface was activated by injecting 0.5 mM NiCl2 for 1 minute. Histidine-tagged recombinant purified SLC25A1 protein (0.07 mg/ml stock concentration) was used as the ligand to capture on the sensor surface. SLC25A1 was dissolved (1:50 dilution) in PBS-P (20 mM phosphate buffer (pH 7.4), 2.7 mM KCl, 137 mM NaCl and 0.05% surfactant P20) buffer and captured onto spots 2 and 4. SLC25A1 was captured to a level of ˜3000. PBS-P was used as the capture running buffer. Small molecules were used as analytes to flow over the ligand immobilized surface. Spot 3 of all flow cells were used as reference. The calculated theoretical Rmax was ˜30 RU based on a 1:1 interaction. The kinetics experiments were performed in the presence of HBS-P (10 mM HEPES (pH7.4), 150 mM NaCl, and 0.05% surfactant P20). The flow rate of all the solutions was maintained at 30 μL/min. The analyte concentrations were 0 μM, […], 6.25 μM, 12.5 μM, 25 μM, 50 μM, and 100 μM. Analyte concentrations showing signs of aggregation were excluded from the analysis. Data were analyzed by Biacore BiaEvaluation software for 1:1 steady state binding model.

MP2 cells [3] = test: Seahorse OCR and ATP in patient-derived cells; format: cell-based, human
Experimental: (§3) Primary lung cancer cultures and GMSC. Surgical samples were minced and digested with dispase (50 U/ml) in DMEM media containing 5% serum for 1 hour. Pleural effusions were centrifuged, washed once in PBS, and then plated. All primary cultures were initially grown on 6-well plates pre-coated with 2% Geltrex (Life Technologies; Carlsbad, CA) and 1% Maxgel (Sigma Aldrich). Maxgel is a humanized matrix, native and non-denatured. The inclusion of Maxgel in the system enhanced the initial attachment of primary tumor cells, partially because Maxgel provides a more natural ECM conformational substrate. The day after plating, the media containing unattached cells was typically transferred to a fresh plate, in most of cases generating new attached cultures. The media (Stem Cell Media) is the DMEM/F12 (Thermo-Fisher #11320-033 basic media) supplemented with the following components: Insulin-Transferrin-Sodium selenite (ITS; 1:1000; Sigma #11884); glutamine (Thermo-Fisher) to 4 mM final concentration; sodium pyruvate (Thermo-Fisher) to 2 mM final concentration; rock inhibitor (Y-27632) 10 micrograms/mL; 2-5% Knock Out Serum Replacement (KNOSR, Thermo-Fisher #10828-028); 0.5% ALBUMAX-(Lipid enriched BSA; Thermo-Fisher #11020-021); N2 Supplement (Thermo-Fisher) 1:250; EGF (5 ng/ml; Peprotech); hFGF (20 ng/ml; Bechman); and IGF-1 (Peprotech; 10-20 ng/ml).
(§4) Seahorse extracellular flux analyzer experiments. Cells derived from spheres or monolayer cultures were dissociated and plated overnight at 12,000 cells/well in DMEM with 10% FBS, 5 mM glucose, 1 mM pyruvate, 2 mM glutamine.
(§5) For the mitochondrial stress test, the media was replaced with DMEM without FBS or bicarbonate, containing 5 mM glucose, 1 mM pyruvate, 2 mM glutamine and placed in a CO2 free incubator at 37° C. for 1 hour, and then transferred to the Xf96 extracellular flux analyzer (Agilent; Santa Clara, CA). The program consisted of 3 measurements of OCR/ECAR before the injection of each drug: oligomycin (0.5 μM final concentration), FCCP (2 μM) and rotenone/antimycin (0.5 μM of each). For the glycolysis stress test, cells were plated overnight as above, and the media was washed twice the following day with DMEM without FBS, bicarbonate, glucose, glutamine or pyruvate, and incubated in this media in a CO2 free incubator with/without drug treatments at 37° C. for 4 hours. There were 3 measurements of OCR/ECAR before each injection: glucose (10 mM final concentration), oligomycin (0.5 […] (50 mM). For the analysis of glutamine oxidation, the protocol was the same as the glucose stress test, but with glutamine being the only compound injected (final concentration 4 mM) and OCR/ECAR measured for 60 minutes. When spheres were analyzed, they were dissociated with StemPro® Accutase® (Thermo Scientific; Waltham, MA) and plated under the same conditions as above as for the monolayers the day before the assay (H1299 spheres), or in stem cell media (See Stem Cell Media) with the wells coated in 15 μL of 2% geltrex diluted in DMEM:F12 (Thermo Scientific). The results were normalized to cell number.

MP1 cells [4] = test: Seahorse OCR and ATP in patient-derived cells; format: cell-based, human; conditions: GMSC versus monolayer; treatment 3 hours
Experimental: as §3, §4, §5

[5] = tested on: phosphofructokinase (PFK); test: Phosphofructokinase activity in cells; format: cell-based, human; conditions: 3 hours
Experimental: Cells, reagents, antibodies, primers. The H1299 cell lines and other cell lines employed in this study were obtained from ATCC or from the tissue culture core facility at LCCC. Cells were grown in Dulbecco's Modified Eagle's Medium (DMEM, 25 mM glucose, with glutamine and pyruvate from Invitrogen; Carlsbad, CA) and supplemented with 10% fetal calf serum (FCS). […] The SLC25A1 specific shRNA vectors were purchased from Sigma. The vector expressing human SLC25A1 untagged or Flag-Myc epitope tagged were from Origene; Rockville, MD (#SC120727 and RC200657, respectively). The anti-SLC25A1 antibody used in immuno-blot was from Santa Cruz Biotech, #sc-86392 employed at 1:1000 dilution. Citrate, lactate, and PFK measurements were performed by using commercially available kits (Biovision (Milpitas, CA)).

With `O=C(O)c1ccccc1NS(=O)(=O)c1ccc(Cl)c([N+](=O)[O-])c1` [CTPI-2] the “self-renewal and sphere forming ability” value (MP2 cells [1]) was “blunted self-renewal and sphere forming ability”, the “self-renewal and sphere forming ability” value (MP1 cells [2]) was “blunted self-renewal and sphere forming ability” and the pKd (SLC25A1) was 5.28. For the same molecule, the “increase of oxygen consumption rates, basal, SRC and mitochondrial ATP output in GMSC cells” value (MP2 cells [3]; GMSC versus monolayer, treatment 3 hours) was “reverted by CTPI-2 more prominently in CSCs than in monolayer cultures”, the “basal respiration, SRC and ATP production in cisplatin treated cells” value (MP2 cells [3]; monolayer cells exposed to cisplatin (FIG. 15A)) was “blocked basal respiration, SRC and ATP production” and the “increase of oxygen consumption rates, basal, SRC and mitochondrial ATP output in GMSC cells” value (MP1 cells [4]) was “reverted by CTPI-2 more prominently in CSCs than in monolayer cultures”. The PFK activity ([5]; monolayer differentiated cultures) was “enhanced” and the PFK activity ([5]; spheres) was “unchanged”.
